Results reported in paper PMC4657098, “A Review of the Updated Pharmacophore for the Alpha 5 GABA(A) Benzodiazepine Receptor Model” (International Journal of Medicinal Chemistry, 2015).
Like-named read-outs stand apart in the source and are kept apart here.

Assays:
α4β3γ2 GABAA/BzR [1] = biological target: T1, α4β3γ2 GABAA/BzR (Homo sapiens, UniProt P18507+P48169); conditions: read-out: Affinity Ki α4, cited from earlier work
T1 construct: expressed in transfected cells; host or cells: LTK cells (given for XLi-093 only)

α1β3γ2 GABAA/BzR [2] = biological target: T2, α1β3γ2 GABAA/BzR (Homo sapiens, UniProt P14867+P18507); test: Competition binding to HEK cell membranes, α1β3γ2; design: expressed in transfected cells
α1β3γ2 GABAA/BzR [3] = biological target: T2, α1β3γ2 GABAA/BzR; design: expressed in transfected cells; host or cells: LTK cells (given for XLi-093 only); conditions: read-out: Affinity Ki α1, cited from earlier work
α2β3γ2 GABAA/BzR [4] = biological target: T3, α2β3γ2 GABAA/BzR (Homo sapiens, UniProt P18507+P47869); design: expressed in transfected cells; host or cells: LTK cells (given for XLi-093 only); conditions: read-out: Affinity Ki α2, cited from earlier work
α3β3γ2 GABAA/BzR [5] = biological target: T4, α3β3γ2 GABAA/BzR (Homo sapiens, UniProt P18507+P34903); design: expressed in transfected cells; host or cells: LTK cells (given for XLi-093 only); conditions: read-out: Affinity Ki α3, cited from earlier work
α5β3γ2 GABAA/BzR [6] = biological target: T5, α5β3γ2 GABAA/BzR (Homo sapiens, UniProt P18507+P31644); design: expressed in transfected cells; host or cells: LTK cells (given for XLi-093 only); conditions: read-out: Affinity Ki α5, cited from earlier work
α6β3γ2 GABAA/BzR [7] = biological target: T6, α6β3γ2 GABAA/BzR (Homo sapiens, UniProt P18507+Q16445); design: expressed in transfected cells; host or cells: LTK cells (given for XLi-093 only); conditions: read-out: Affinity Ki α6, cited from earlier work
[8] = system: dopamine neurons in the VTA; conditions: rat, in vivo; cited from earlier work
α4β3γ2 GABAA/BzR [9] = biological target: T1, α4β3γ2 GABAA/BzR; test: biochemical; format: binding
α2β3γ2 GABAA/BzR [10] = biological target: T3, α2β3γ2 GABAA/BzR; test: Competition binding to HEK cell membranes, α2β3γ2; design: expressed in transfected cells
α3β3γ2 GABAA/BzR [11] = biological target: T4, α3β3γ2 GABAA/BzR; test: Competition binding to HEK cell membranes, α3β3γ2; design: expressed in transfected cells
α5β3γ2 GABAA/BzR [12] = biological target: T5, α5β3γ2 GABAA/BzR; test: Competition binding to HEK cell membranes, α5β3γ2; design: expressed in transfected cells
α6β3γ2 GABAA/BzR [13] = biological target: T6, α6β3γ2 GABAA/BzR; test: Competition binding to HEK cell membranes, α6β3γ2; design: expressed in transfected cells
[14] = system: alcohol preferring and HAD rats; conditions: cited from earlier work; for rate at which rats self-administrated alcohol: alcohol preferring and HAD rats
[15] = system: Bz BS of GABA(A) receptors; conditions: cited from earlier work; for modulation: Supplement Table 1
baboons = conditions: cited from earlier work

**Q.** Which results are given for `CC(C)(C)OC(=O)c1cc2c(cn1)[nH]c1ccc(C#CC#Cc3ccc4[nH]c5cnc(C(=O)OC(C)(C)C)cc5c4c3)cc12` [43(WY-S-6)]?
**A.** Ki (α4β3γ2 GABAA/BzR [1]): 5000 nM; Ki (α1β3γ2 GABAA/BzR [2]; binding to α1 subtypes): 120 nM; Ki (α1β3γ2 GABAA/BzR [3]): 120 nM; Ki (α2β3γ2 GABAA/BzR [4]): 1060 nM; Ki (α3β3γ2 GABAA/BzR [5]): 3940 nM; Ki (α5β3γ2 GABAA/BzR [6]): 5000 nM; Ki (α6β3γ2 GABAA/BzR [7]): 5000 nM

**Q.** Which “cells/track after infusion in the ventral HPC of haloperidol-treated rats” value [8] does the source give for `NC1=N[C@H](O)[C@H]2[C@H]3O[C@]4(O)O[C@@H]([C@@H](O)[C@@]2(N1)[C@@H]4O)[C@]3(O)CO` [TTX, Tetrodotoxin, reference compound] here?
**A.** reversed the haloperidol-induced reduction in cells/track in SAL, but not MAM

**Q.** Which “number of spontaneously active dopamine neurons after repeated treatment, SAL and MAM rats” value [8] does the source give for `O=C(CCCN1CCC(O)(c2ccc(Cl)cc2)CC1)c1ccc(F)cc1` [haloperidol, reference compound] here?
**A.** reduction

**Q.** With `CCOC(=O)c1cc2c(cn1)[nH]c1ccc(C#C[Si](C)(C)C)cc12` [WY-B-99-1] as the compound, how does the Ki (α4β3γ2 GABAA/BzR [9]) read?
**A.** 2000 nM

**Q.** And the Ki (α4β3γ2 GABAA/BzR [1]; Figure 33, αxβ3γ2)?
**A.** 2000 nM

**Q.** And the Ki (α1β3γ2 GABAA/BzR [2]; Ki α1)?
**A.** 4.4 nM

**Q.** What about the Ki (α1β3γ2 GABAA/BzR [2]; read-out: Ki α1) of the same compound?
**A.** 4.4 nM

**Q.** What about the Ki (α2β3γ2 GABAA/BzR [10]; Ki α2) of the same compound?
**A.** 4.5 nM

**Q.** And the Ki (α2β3γ2 GABAA/BzR [10]; read-out: Ki α2)?
**A.** 4.5 nM

**Q.** And the Ki (α3β3γ2 GABAA/BzR [11]; Ki α3)?
**A.** 5.58 nM

**Q.** What about the Ki (α3β3γ2 GABAA/BzR [11]; read-out: Ki α3) of the same compound?
**A.** 5.58 nM

**Q.** What about the Ki (α5β3γ2 GABAA/BzR [12]; Ki α5) of the same compound?
**A.** 47 nM

**Q.** What about the Ki (α5β3γ2 GABAA/BzR [12]; read-out: Ki α5) of the same compound?
**A.** 47 nM

**Q.** And the Ki (α6β3γ2 GABAA/BzR [13]; Ki α6)?
**A.** 2000 nM

**Q.** And the Ki (α1β3γ2 GABAA/BzR [3]; Figure 33, αxβ3γ2)?
**A.** 4.4 nM

**Q.** What about the Ki (α2β3γ2 GABAA/BzR [4]; Figure 33, αxβ3γ2) of the same compound?
**A.** 4.5 nM

**Q.** And the Ki (α3β3γ2 GABAA/BzR [5]; Figure 33, αxβ3γ2)?
**A.** 5.58 nM

**Q.** And the Ki (α5β3γ2 GABAA/BzR [6]; Figure 33, αxβ3γ2)?
**A.** 47 nM

**Q.** What about the Ki (α6β3γ2 GABAA/BzR [7]; Figure 33, αxβ3γ2) of the same compound?
**A.** 2000 nM

**Q.** For `CC(C)(C)OC(=O)c1cc2c(cn1)[nH]c1ccccc12` [BCCt], which Ki (α4β3γ2 GABAA/BzR [1]; Figure 33, αxβ3γ2) is on record?
**A.** 1000 nM

**Q.** And the “rate at which rats self-administrated alcohol” value [14]?
**A.** reduce the rate

**Q.** And the sucrose self-administration [14]?
**A.** little or no effect

**Q.** What about the modulation [15] of the same compound?
**A.** antagonist

**Q.** What about the “pharmacological properties compared with classical benzodiazepine receptor antagonists” value [15] of the same compound?
**A.** near GABA neutral antagonists

**Q.** And the Ki (α1β3γ2 GABAA/BzR [2]; Ki α1)?
**A.** 0.03 nM

**Q.** And the Ki (α2β3γ2 GABAA/BzR [10]; Ki α2)?
**A.** 0.0419 nM

**Q.** What about the Ki (α3β3γ2 GABAA/BzR [11]; Ki α3) of the same compound?
**A.** 0.035 nM

**Q.** What about the Ki (α5β3γ2 GABAA/BzR [12]; Ki α5) of the same compound?
**A.** 69.3 nM

**Q.** And the Ki (α5β3γ2 GABAA/BzR [12]; read-out: Ki α5)?
**A.** 111 nM

**Q.** And the Ki (α6β3γ2 GABAA/BzR [13]; Ki α6)?
**A.** 5000 nM

**Q.** And the Ki (α6β3γ2 GABAA/BzR [7]; Figure 33, αxβ3γ2)?
**A.** > 5000 nM

**Q.** What does the source list for `CC(C)(C)OC(=O)c1cc2c(cn1)[nH]c1ccc(C#Cc3ccc4[nH]c5cnc(C(=O)OC(C)(C)C)cc5c4c3)cc12` [42(WY-S-2)]?
**A.** Ki (α4β3γ2 GABAA/BzR [1]): > 300 nM; Ki (α1β3γ2 GABAA/BzR [2]; binding to α1 subtypes): 30 nM; Ki (α1β3γ2 GABAA/BzR [3]): 30 nM; Ki (α2β3γ2 GABAA/BzR [4]): 124 nM; Ki (α3β3γ2 GABAA/BzR [5]): 100 nM; Ki (α5β3γ2 GABAA/BzR [6]): > 300 nM; Ki (α6β3γ2 GABAA/BzR [7]): > 4000 nM

**Q.** For `CCCOc1cc2c(cn1)[nH]c1ccccc12.Cl` [3 PBC, 3-propoxy-β-carboline hydrochloride], which Ki (α4β3γ2 GABAA/BzR [1]; Figure 33, αxβ3γ2) is on record?
**A.** 1000 nM

**Q.** And the “rate at which rats self-administrated alcohol” value [14]?
**A.** reduce the rate

**Q.** And the sucrose self-administration [14]?
**A.** little or no effect

**Q.** What about the activity in baboons (baboons) of the same compound?
**A.** active

**Q.** And the modulation [15]?
**A.** antagonist

**Q.** What about the “pharmacological properties compared with classical benzodiazepine receptor antagonists” value [15] of the same compound?
**A.** near GABA neutral antagonists

**Q.** And the Ki (α6β3γ2 GABAA/BzR [13]; Ki α6)?
**A.** 1000 nM

**Q.** What about the Ki (α6β3γ2 GABAA/BzR [7]; Figure 33, αxβ3γ2) of the same compound?
**A.** > 1000 nM

**Q.** For `O=C(OCC(F)(F)F)c1cc2c(cn1)[nH]c1ccc(-c3cccs3)cc12` [WY-B-27-2], which Ki (α4β3γ2 GABAA/BzR [9]; read-out: Ki α4) is on record?
**A.** 2000 nM

**Q.** And the Ki (α4β3γ2 GABAA/BzR [1])?
**A.** 2000 nM

**Q.** What about the Ki (α1β3γ2 GABAA/BzR [2]; read-out: Ki α1) of the same compound?
**A.** 9.19 nM

**Q.** And the Ki (α2β3γ2 GABAA/BzR [10]; read-out: Ki α2)?
**A.** 111 nM

**Q.** What about the Ki (α3β3γ2 GABAA/BzR [11]; read-out: Ki α3) of the same compound?
**A.** 72 nM

**Q.** What about the Ki (α5β3γ2 GABAA/BzR [12]; read-out: Ki α5) of the same compound?
**A.** 449 nM

**Q.** And the Ki (α6β3γ2 GABAA/BzR [13]; read-out: Ki α6)?
**A.** 2000 nM

**Q.** And the Ki (α1β3γ2 GABAA/BzR [3])?
**A.** 9.2 nM

**Q.** What about the Ki (α2β3γ2 GABAA/BzR [4]) of the same compound?
**A.** 13 nM

**Q.** And the Ki (α3β3γ2 GABAA/BzR [5])?
**A.** 72 nM

**Q.** And the Ki (α5β3γ2 GABAA/BzR [6])?
**A.** 449 nM

**Q.** What about the Ki (α6β3γ2 GABAA/BzR [7]) of the same compound?
**A.** 2000 nM
